Here are results for 18 compounds from patent US20240400518A1, “SOS1 INHIBITOR AND USE THEREOF” (KANAPH THERAPEUTICS INC., priority 2021, published 2024).

SMILES strings stand for the structures. pIC50: −log10 of the molar value.

For the first test, the target named is T1, SOS1 (Homo sapiens, UniProt Q07889).
T1 construct: adding equal amounts of HIS—SOS1cat (160 nM; Cytoskeleton, US); His (N); purchased Cytoskeleton, US
T1 sequence (Q07889 564-1049 limits assumed): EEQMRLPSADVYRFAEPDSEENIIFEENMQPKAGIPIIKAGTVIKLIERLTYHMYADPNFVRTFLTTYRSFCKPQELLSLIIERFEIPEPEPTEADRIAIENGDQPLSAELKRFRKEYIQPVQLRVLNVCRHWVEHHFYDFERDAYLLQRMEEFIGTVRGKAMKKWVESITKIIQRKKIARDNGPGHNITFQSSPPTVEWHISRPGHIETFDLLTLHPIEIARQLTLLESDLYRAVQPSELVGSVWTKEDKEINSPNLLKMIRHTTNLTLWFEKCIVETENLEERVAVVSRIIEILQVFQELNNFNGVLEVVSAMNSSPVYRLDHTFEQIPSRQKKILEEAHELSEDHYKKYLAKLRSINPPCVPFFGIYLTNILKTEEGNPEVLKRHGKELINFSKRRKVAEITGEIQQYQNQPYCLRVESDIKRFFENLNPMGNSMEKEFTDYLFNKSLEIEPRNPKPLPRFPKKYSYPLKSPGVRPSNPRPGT
Briefly: SOS-catalyzed nucleotide exchange assay (HTRF, SOS1-mediated GTP loading of KRAS G12D). Particulars: GST-KRAS G12D, HIS-SOS1cat, IC50 class. Type of test: biochemical. As for the experimental part:
SOS1 activity was measured by SOS1-mediated GTP loading quantification of KRAS^G12D. GTP loaded KRAS^G12D was detected by HTRF (Homogeneous Time Resolved Fluorescence) using anti-GST terbium (Cisbio, France) as a donor and a fluorescence GTP analogue (EDA-GTP-DY-647P1, [DY-647P1 labeled 2′/3′-O-(2-aminoethyl-carbamoyl)guanosine-5′-triphosphate (Jena bioscience, Germany)]) as an acceptor.
Assay buffer was composed of 10 mM HEPES pH 7.4, 150 mM NaCl, 5 mM MgCl2, 1 mM DTT, 0.05% BSA Fraction V pH 7.0 (Sigma) and 0.0025% (v/v) Igepal (Sigma). KRAS^G12D working solution was prepared by adding equal amounts of GST-KRAS^G12D (100 nM) and anti-GST-terbium (2 nM; Cisbio, France) to the assay buffer and culturing on ice for 10 minutes. SOS1cat working solution was prepared by adding equal amounts of HIS—SOS1cat (160 nM; Cytoskeleton, US) and EDA-GTP-DY-647P1 (200 nM; Jena bioscience, Germany) to the assay buffer. Control solution was prepared by adding equal volumes of EDA-GTP-DY-647P1 and the assay buffer for normalization control to exclude GEF-independent GTP loading and background signals. In order to induce a reaction, 5 μL of the SOS1cat working solution or the control solution was injected into each well. 5 μL of a compound having various concentrations from 128 pM to 10 μM was added to wells containing the SOS1cat working solution and incubated at room temperature for 10 minutes to bind to SOS1.
10 μL of the KRAS^G12D solution was added to each well and incubated for 30 minutes at room temperature while shaking. HTRF was measured using a Thermo Varioskan (excitation 334 nm, emission 665 nm). The IC50 of each inhibitor was analyzed using Graphad Prism.
Background: Time-resolved FRET reads energy transfer from a long-lived donor to a nearby acceptor.
For orientation: pIC50 means the negative decadic logarithm of the IC50, by convention in mol/L. Read a high pIC50 as a low IC50. Compound `CC(=O)N1CCC(n2nc(C(=O)N[C@H](C)c3cc(N)cc(C(F)(F)F)c3)ccc2=O)CC1` [Example 118, 1-(1-acetylpiperidin-4-yl)-N-[(1R)-1-[3-amino-5-(trifluoromethyl)phenyl]ethyl]-6-oxo-1,6-dihydropyridazine-3-carboxamide] had a pIC50 of 5.00 to 6.00.

The next test concerns the target T2, KRAS^G12C::SOS1 (Homo sapiens, UniProt Q07889).
T2 construct: purchased CISBIO, FRANCE 64KRASG12PEH
T2 sequence (Q07889 1-1333): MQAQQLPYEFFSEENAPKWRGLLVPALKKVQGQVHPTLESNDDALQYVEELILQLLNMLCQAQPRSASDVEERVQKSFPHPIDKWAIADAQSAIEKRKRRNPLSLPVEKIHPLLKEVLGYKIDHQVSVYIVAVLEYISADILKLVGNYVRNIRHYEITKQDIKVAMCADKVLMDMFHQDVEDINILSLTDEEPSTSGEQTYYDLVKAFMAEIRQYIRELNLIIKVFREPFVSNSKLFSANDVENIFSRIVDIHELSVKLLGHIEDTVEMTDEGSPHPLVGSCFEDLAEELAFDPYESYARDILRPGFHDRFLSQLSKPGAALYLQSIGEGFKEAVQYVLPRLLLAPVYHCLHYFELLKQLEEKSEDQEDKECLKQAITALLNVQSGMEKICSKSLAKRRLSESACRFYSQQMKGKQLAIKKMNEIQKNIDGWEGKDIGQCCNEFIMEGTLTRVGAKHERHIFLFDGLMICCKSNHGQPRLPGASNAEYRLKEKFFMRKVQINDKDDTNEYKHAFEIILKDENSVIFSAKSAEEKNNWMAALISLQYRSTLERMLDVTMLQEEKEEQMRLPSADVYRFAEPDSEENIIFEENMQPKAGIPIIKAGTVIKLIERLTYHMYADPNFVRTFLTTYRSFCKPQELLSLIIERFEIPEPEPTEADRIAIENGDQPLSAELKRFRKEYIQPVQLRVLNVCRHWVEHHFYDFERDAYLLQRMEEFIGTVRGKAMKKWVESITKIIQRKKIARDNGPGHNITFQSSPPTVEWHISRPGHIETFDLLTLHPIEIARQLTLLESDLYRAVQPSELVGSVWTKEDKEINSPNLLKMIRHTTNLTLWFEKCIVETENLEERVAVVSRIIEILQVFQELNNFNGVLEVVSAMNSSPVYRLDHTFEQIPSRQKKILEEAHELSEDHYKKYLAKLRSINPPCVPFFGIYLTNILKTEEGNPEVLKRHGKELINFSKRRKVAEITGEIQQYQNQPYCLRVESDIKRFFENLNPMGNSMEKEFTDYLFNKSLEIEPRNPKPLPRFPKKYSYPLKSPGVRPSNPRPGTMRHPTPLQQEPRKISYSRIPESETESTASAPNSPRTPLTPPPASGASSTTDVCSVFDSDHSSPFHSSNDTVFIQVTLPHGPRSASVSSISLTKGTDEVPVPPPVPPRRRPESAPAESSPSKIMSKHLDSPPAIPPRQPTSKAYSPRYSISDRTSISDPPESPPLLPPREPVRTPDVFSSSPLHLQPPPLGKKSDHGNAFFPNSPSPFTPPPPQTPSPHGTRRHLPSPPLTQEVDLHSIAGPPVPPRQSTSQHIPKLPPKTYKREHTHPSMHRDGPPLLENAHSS
In words: KRAS G12C::SOS1 protein-protein interaction (PPI) inhibition assay (HTRF binding kit). As to conditions: max inhibitor concentration 3 μM, three replicates, IC50 class. The protocol:
Protein-protein interaction between SOS1 and KRAS^G12C was detected using KRAS G12C/SOS1 binding kit from CISBIO (64KRASG12PEH, CISBIO, FRANCE) according to the manufacturer's assay method. Briefly, the maximum concentration of an inhibitor sample was set to be 3 μM, and the inhibitor sample was diluted 7 times by 1/3, and samples having a total of 8 concentrations were prepared. In HTRF (Homogeneous Time-Resolved Fluorescence) exclusive 96-well low-volume white plate (66PL96005, CISBIO, FRANCE), 2 μL of an inhibitor sample prepared for each concentration, 5 μL of a mixed solution of Tag1 labeled KRAS^G12C protein and GTP diluted with the dilution solution provided by the manufacturer, and 5 μL of Tag2 labeled SOS1 protein were mixed, and added with 8 μL of a diluted solution where anti-Tag1 KRAS^G12CXL665 (HTRF acceptor) labeled antibody and anti-Tag2 SOS1 Terbium cryptate (HTRF donor) labeled antibody were mixed in an equal ratio and cultured at room temperature for 2 hours.
Consider `[2H]C([2H])([2H])n1nncc1-c1cccc(-n2nc(C(=O)N[C@H](C)c3cccc(C(F)(F)CO)c3F)ccc2=O)c1` [Example 393, N-[(1R)-1-[3-(1,1-difluoro-2-hydroxy-ethyl)-2-fluoro-phenyl]ethyl]-6-oxo-1-[3-[3-(trideuteriomethyl)triazol-4-yl]phenyl]pyridazine-3-carboxamide], for which the negative logarithm of the IC50 (pIC50) was over 6.00.

In the case of `C[C@@H](NC(=O)c1ccc(=O)n(-c2cc(F)cc(-c3cnnn3C)c2)n1)c1cc(N)cc(C(F)(F)F)c1` [Example 391, N-[(1R)-1-[3-amino-5-(trifluoromethyl)phenyl]ethyl]-1-[3-fluoro-5-(3-methyltriazol-4-yl)phenyl]-6-oxo-pyridazine-3-carboxamide], the pIC50 was over 6.00.

The compound `C[C@@H](NC(=O)c1ccc(=O)n(-c2ccc(F)c(-c3cnnn3C)c2)n1)c1cc(N)cc(C(F)(F)F)c1` [Example 389, N-[(1R)-1-[3-amino-5-(trifluoromethyl)phenyl]ethyl]-1-[4-fluoro-3-(3-methyltriazol-4-yl)phenyl]-6-oxo-pyridazine-3-carboxamide] gave a pIC50 of over 6.00.

Compound `C[C@@H](NC(=O)c1ccc(=O)n(-c2cc(-c3cnnn3C)ccc2F)n1)c1cc(N)cc(C(F)(F)F)c1` [Example 371, N-[(1R)-1-[3-amino-5-(trifluoromethyl)phenyl]ethyl]-1-[2-fluoro-5-(3-methyltriazol-4-yl)phenyl]-6-oxo-pyridazine-3-carboxamide] had a pIC50 of over 6.00.

Regarding `Cc1c([C@@H](C)NC(=O)c2ccc(=O)n(-c3ccccc3F)n2)cc(N)cc1C(F)(F)F` [Example 244, N-[(1R)-1-[5-amino-2-methyl-3-(trifluoromethyl)phenyl]ethyl]-1-(2-fluorophenyl)-6-oxo-pyridazine-3-carboxamide], the pIC50 is over 6.00.

Regarding `C[C@@H](NC(=O)c1ccc(=O)n(-c2cncc(-c3cnnn3C)c2)n1)c1cc(N)cc(C(F)(F)F)c1` [Example 392, N-[(1R)-1-[3-amino-5-(trifluoromethyl)phenyl]ethyl]-1-[5-(3-methyltriazol-4-yl)-3-pyridyl]-6-oxo-pyridazine-3-carboxamide], the pIC50 is over 6.00.

Consider `C[C@@H](NC(=O)c1ccc(=O)n(-c2ccc(F)c(-c3cnnn3C)c2)n1)c1cccc(C(F)(F)CO)c1F` [Example 390], for which the pIC50 is over 6.00.

With `Cc1cnnn1-c1cccc(-n2cc(C(=O)N[C@H](C)c3cc(N)cc(C(F)(F)F)c3)ccc2=O)c1` [Example 377, N-[(1R)-1-[3-amino-5-(trifluoromethyl)phenyl]ethyl]-1-[3-(5-methyltriazol-1-yl)phenyl]-6-oxo-pyridine-3-carboxamide], the pIC50 is over 6.00.

The compound `C[C@@H](NC(=O)c1ccc(=O)n(-c2cccc(C(=O)O)c2)n1)c1cc(N)cc(C(F)(F)F)c1` [Example 249, 3-(3-{[(1R)-1-[3-amino-5-(trifluoromethyl)phenyl]ethyl]carbamoyl}-6-oxo-1,6-dihydropyridazin-1-yl)benzoic acid] had a pIC50 of over 6.00.

`C[C@@H](NC(=O)c1ccc(=O)n(-c2ccncc2F)n1)c1cc(N)cc(C(F)(F)F)c1` [Example 191] showed a pIC50 of over 6.00.

As for `C[C@@H](NC(=O)c1ccc(=O)n(-c2cccc(-c3ccccc3)c2)n1)c1cc(N)cc(C(F)(F)F)c1` [Example 212], the pIC50 was 5.00 to 6.00.

The compound `CNCc1ccc(Cl)cc1-c1ccc([C@@H](C)NC(=O)c2ccc(=O)n(-c3cccnc3)c2)s1` [Example 284] showed a pIC50 of over 6.00.

With `C[C@@H](NC(=O)c1ccc(=O)n(-c2cccc(-c3cnoc3)c2)n1)c1cc(N)cc(C(F)(F)F)c1` [Example 322, N-[(1R)-1-[3-amino-5-(trifluoromethyl)phenyl]ethyl]-1-(3-isoxazol-4-ylphenyl)-6-oxo-pyridazine-3-carboxamide], the pIC50 was over 6.00.

Consider `C[C@@H](NC(=O)c1ccc(=O)n(-c2cccc(-c3cnnn3C)c2)n1)c1cccc(C(F)(F)CO)c1F` [Example 370, N-[(1R)-1-[3-(1,1-difluoro-2-hydroxy-ethyl)-2-fluoro-phenyl]ethyl]-1-[3-(3-methyltriazol-4-yl)phenyl]-6-oxo-pyridazine-3-carboxamide], for which the pIC50 was over 6.00.

`C[C@@H](NC(=O)c1ccc(=O)n(-c2ccccc2F)n1)c1ccc(Br)s1` [Example 265, N-[(1R)-1-(5-bromo-2-thienyl)ethyl]-1-(2-fluorophenyl)-6-oxo-pyridazine-3-carboxamide] had a pIC50 of over 6.00.

In the case of `C[C@@H](NC(=O)c1ccc(=O)n(-c2cccc(C(C)(C)O)c2)n1)c1cc(N)cc(C(F)(F)F)c1` [Example 171], the pIC50 was over 6.00.

Consider `Cc1cnnn1-c1cccc(-n2nc(C(=O)N[C@H](C)c3cc(N)cc(C(F)(F)F)c3)ccc2=O)c1` [Example 378, N-[(1R)-1-[3-amino-5-(trifluoromethyl)phenyl]ethyl]-1-[3-(5-methyltriazol-1-yl)phenyl]-6-oxo-pyridazine-3-carboxamide], for which the pIC50 is over 6.00.
